Test results taken from PMC10604990, “Characterization and Investigation of Novel Benzodioxol Derivatives as Antidiabetic Agents: An In Vitro and In Vivo Study in an Animal Model” (Biomolecules, 2023).
Read-outs that look alike come from different tables or passages of the source.

Key:
α-amylase [1] = target: T1, α-amylase (Homo sapiens, UniProt P04746); settings: cited from earlier work
T1 sequence (P04746 16-511): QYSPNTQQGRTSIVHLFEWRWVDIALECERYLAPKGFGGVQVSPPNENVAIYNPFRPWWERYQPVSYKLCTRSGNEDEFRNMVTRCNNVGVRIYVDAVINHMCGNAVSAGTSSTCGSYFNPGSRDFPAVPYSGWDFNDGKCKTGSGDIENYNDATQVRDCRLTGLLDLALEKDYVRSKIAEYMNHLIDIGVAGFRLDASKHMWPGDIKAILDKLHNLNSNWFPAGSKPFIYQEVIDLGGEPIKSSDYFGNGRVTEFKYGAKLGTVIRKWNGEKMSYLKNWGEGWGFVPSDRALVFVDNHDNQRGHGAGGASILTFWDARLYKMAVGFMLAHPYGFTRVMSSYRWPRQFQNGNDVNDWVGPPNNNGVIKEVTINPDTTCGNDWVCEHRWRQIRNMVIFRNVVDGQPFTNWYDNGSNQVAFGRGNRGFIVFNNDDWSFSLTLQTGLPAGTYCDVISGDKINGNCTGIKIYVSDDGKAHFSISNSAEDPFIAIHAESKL

HepG2 = assay: MTS cytotoxicity assay, HepG2; assay type: cell-based
Description: (§1) Cultivation of the cancer cell lines MCF-7, Hep3B, HepG2, and Caco-2 HeLa was conducted in RPMI 1640 medium, whereas LX-2, B16-F1, and HEK-293T cells were grown in DMEM medium. These cells were incubated at 37 °C in a 5% CO2 atmosphere within a humid setting. In a 96-well plate, 1000 cells were seeded in each well. Following a 24 h incubation, they were exposed to various concentrations of Ia-IIe compounds (300, 100, 50, and 10 µM) for 72 h. The Cell-Tilter 96® (Promega Corporation, Madison, WI, USA) Aqueous One Solution Cell Proliferation (MTS) bioassay was utilized to determine the cell viability post-culture. For this assay, 90 µL of medium and 10 µL of MTS solution were added to every well, and the plates were then placed in a 37 °C environment for 2 to 4 h. The absorbance was subsequently assessed at a wavelength of 490 nm using a UV–Vis spectrophotometer.

MCF-7 = assay: MTS cytotoxicity assay, MCF-7; assay type: cell-based
Description: as §1

Hek293t normal cell line = assay: MTS cytotoxicity assay, Hek293t normal cell line; assay type: cell-based; settings: 72 h
Description: as §1

Caco-2 = assay: MTS cytotoxicity assay, Caco-2; assay type: cell-based
Description: as §1

HeLa = assay: MTS cytotoxicity assay, HeLa; assay type: cell-based; settings: 72 h
Description: as §1

LX-2 = assay: MTS cytotoxicity assay, LX-2; assay type: cell-based
Description: as §1

Hep3B = assay: MTS cytotoxicity assay, Hep3B; assay type: cell-based; settings: 72 h
Description: as §1

α-amylase [2] = target: T1, α-amylase; assay: α-amylase inhibition, DNSA method; assay type: biochemical
Description: The experiment was conducted using the 3,5-dinitrosalicylic acid (DNSA) approach. Buffer solutions were prepared, containing 20 mm of both sodium phosphate monobasic and sodium phosphate dibasic, and were augmented with 6.7 mm sodium chloride (NaH2PO4 and Na2HPO4, each at 6.7 mm NaCl, pH 6.9). A beaker was filled partially with NaH2PO4 and NaCl solution and stirred magnetically, and the pH was meticulously calibrated using a specialized electrode. The desired pH of 6.9 was achieved by adding more NaH2PO4 and NaCl to the solution.
The stock solution consisted of synthesized molecules at a 1 mg/mL concentration, harmoniously blended with no less than 10% DMSO in a 1:100 dilution. This mixture was then united with a buffer composed of Na2HPO4/NaH2PO4 (0.02 M) and NaCl (0.006 M), maintaining a pH of 6.9. From this, working solutions were created at concentrations ranging from 0.1 to 100 µM. These comprised 0.01, 0.1, 0.5, 1, and 5 mL of the synthesized molecules diluted with the pH-adjusted buffer and brought to a total volume of 10 mL using VF (10 mL).
This transformative amalgam journeyed to attain a final volume of 100 mL, seamlessly infused with the phosphate buffer discussed earlier, harmonizing within a 100 mL volumetric flask (VF). Meanwhile, the starch solution, poised at a concentration of 1% (w/v), saw the suspension of 1000 mg of starch in 100 mL of distilled water, orchestrated with finesse within a 100 mL VF. This aqueous symphony unfolded in a temperate embrace of 37 °C within a water bath, occasionally stirring to deter any starch precipitation inklings.
The overture of this reaction was orchestrated by DNSA—a reactive virtuoso that commences its dance upon encountering reducing sugars, conjuring forth 3-amino-5-nitro salicylic acid, a spectral charmer at the wavelength of around 540 nm. The creation of DNSA itself, an artful process, saw the dissolution of 12 g of sodium potassium tartrate tetrahydrate within 8.0 mL of 2 M NaOH, further entwined with 20 mL of the enchanted 96 mm 3.5-dinitrosalicylic acid solution. Thus, the stage was set for this chemical ballet, where reactions waltzed, and absorbance painted a canvas of molecular magic. […]
The climax of this reaction narrative was unveiled as 200 μL of DNSA entered the stage, promptly followed by a vigorous boiling performance for 10 min, orchestrated at the harmonious temperature range of 85 to 90 °C. […] In a final crescendo, the resounding absorbance at 540 nm resounded as it was masterfully measured utilizing the UV-Visible spectrophotometer.
In order to produce the initial state, the blank canvas was used to substitute the synthesized chemicals, adding 200 μL of buffer. […] This captivating performance culminated with quantifying enzyme inhibitory activity expressed as a percentage of inhibition. […]

α-amylase [3] = target: T1, α-amylase; settings: control compound IIe; cited from earlier work
[4] = tested on: streptozotocin-induced diabetic mice; assay: In vivo hypoglycemic effect in STZ-induced diabetic mice; settings: five daily i.p. doses of 10 mg/kg, fasting, 252.2 mg/dL before treatment, untreated diabetes group 274.25 mg/dL
Text: The mice-related investigations were meticulously conducted, adhering strictly to the protocols outlined by the Association for Assessment and Accreditation of Laboratory Animal Care International. The ethical underpinning of these experiments was formally acknowledged, having secured the approval of the Institutional Review Board of the Animal House and Use Committee at An-Najah National University (approval number: Med. June. 2023/9).
The study’s protagonists consisted of 18 healthy adult mice gracing the stage with a weight symphony ranging from 17 to 27 g. These cherished participants were thoughtfully accommodated in groups of three within the hospitable confines of the animal facility. In an overture of preparation, the mice were granted 7 days to acquaint themselves with the ambiance of the animal facility, enveloped within the embrace of controlled temperature conditions, a harmonious 25 ± 2 °C.
In the experiment, the mice were subjected to diabetes induction via an intraperitoneal (i.p.) injection of streptozotocin (STZ). […] In order to ascertain the induction of diabetes, the fasting blood glucose levels of the mice were assessed on the fourth day after the injection of STZ. […]
In this research, the fasting blood glucose levels for all groups were measured on the first day before the induction of diabetes using a streptozotocin (STZ) injection. […]

cancer cell lines = assay: MTS cytotoxicity assay, range over cell lines; assay type: cell-based
Description: as §1

Structure (SMILES) | IC50 (HepG2; Homo sapiens, HepG2, 72 h) [µM] | IC50 (MCF-7; Homo sapiens, MCF7, 72 h) [µM] | IC50 (Hek293t normal cell line; Homo sapiens, HEK-293T) [µM] | IC50 (Caco-2; Homo sapiens, Caco-2, 72 h) [µM] | IC50 (HeLa; Homo sapiens, HeLa) [µM] | IC50 (LX-2; Homo sapiens, LX-2, 72 h) [µM] | IC50 (Hep3B; Homo sapiens, Hep3B) [µM] | other results
N#C/C=C1/C=C(c2ccc(Br)cc2)N=C2Sc3ccccc3N21 [St.1] | – | – | – | – | – | – | – | IC50 (α-amylase [1]): 15.3 µM
COc1cc(OC)cc(C(=O)c2ccc3c(c2)OCO3)c1 [St.3] | – | – | – | – | – | – | – | IC50 (α-amylase [1]; earlier work of the same team): 15 µM
COc1cccc2c1C(=O)c1c(O)c3c(c(O)c1C2=O)C[C@@](O)(C(=O)CO)C[C@@H]3O[C@H]1C[C@H](N)[C@H](O)[C@H](C)O1 [DOX, reference compound] | – | – | – | – | – | – | – | IC50 (HepG2; 72 h): < 0.01 µM; IC50 (MCF-7; 72 h): 0.053 ± 0.009 µM; IC50 (Hek293t normal cell line): 0.038 ± 0.02 µM; IC50 (Caco-2; 72 h): 0.024 ± 0.001 µM; IC50 (HeLa): < 0.01 µM; IC50 (LX-2; 72 h): 0.21 ± 0.12 µM; IC50 (Hep3B): 0.025 ± 0.005 µM
COc1cc(NC(=O)Cc2ccc3c(c2)OCO3)c(OC)cc1Cl [Ia, 2-(benzo[d][1,3]dioxol-5-yl)-N-(4-chloro-2,5-dimethoxyphenyl)acetamide] | 169 ± 2.16 | 124 ± 2.73 | > 300 | > 300 | 43.6 ± 2.97 | 70.6 ± 2.45 | 197 ± 1.99 | IC50 (α-amylase [2]): 16.8 ± 1.55 µM
O=c1[nH]cc(F)c(=O)[nH]1 [Compound 5-FU, reference compound] | – | – | – | – | – | – | – | IC50 (HepG2; 72 h): 4.07 ± 1.42 µM; IC50 (MCF-7; 72 h): 6.51 ± 1.82 µM; IC50 (Caco-2; 72 h): 4.75 ± 1.71 µM; IC50 (HeLa): 7.79 ± 1.6 µM; IC50 (LX-2; 72 h): 0.178 ± 0.11 µM; IC50 (Hep3B): 5.11 ± 1.67 µM
O=C(Nc1ccccc1)c1ccc2c(c1)OCO2 [IIa, N-phenylbenzo[d][1,3]dioxole-5-carboxamide] | > 300 | > 300 | > 150 | > 300 | > 300 | > 300 | > 300 | IC50 (Hek293t normal cell line): > 300 µM; IC50 (α-amylase [2]): 0.85 ± 0.18 µM
COC(=O)Cc1cc2c(cc1C(=O)c1ccccc1Br)OCO2 [St.2] | – | – | – | – | – | – | – | IC50 (α-amylase [1]; earlier work of the same team): 6.81 µM
COc1cc(NC(=O)c2ccc3c(c2)OCO3)cc(OC)c1 [IIe, N-(3,5-dimethoxyphenyl)benzo[d][1,3]dioxole-5-carboxamide] | > 300 | > 300 | > 300 | > 300 | > 300 | 183 ± 2 | > 300 | IC50 (α-amylase [3]): 15 ± 3.52 µM
Oc1cc(O)cc(Oc2c(O)cc(Oc3c(O)cc(O)cc3O)cc2O)c1 [DDBT, 2-(4-(3,5-dihydroxyphenoxy)-3,5-dihydroxyphenoxy) benzene-1,3,5-triol] | – | – | – | – | – | – | – | IC50 (α-amylase [1]): 8.5 µM
COc1cc(NC(=O)c2ccc3c(c2)OCO3)cc(OC)c1OC [IIb, N-(3,4,5-trimethoxyphenyl)benzo[d][1,3]dioxole-5-carboxamide] | > 300 | > 300 | > 300 | > 300 | > 300 | 96.6 ± 2.7 | > 300 | –
O=C(Cc1ccc2c(c1)OCO2)Nc1ccccc1 [Ib, 2-(benzo[d][1,3]dioxol-5-yl)-N-phenylacetamide] | > 300 | > 300 | 269.2 ± 1.73 | > 300 | > 300 | 280.6 ± 2.33 | > 300 | –
COc1ccc(OC)c(NC(=O)Cc2ccc3c(c2)OCO3)c1 [Ic, 2-(benzo[d][1,3]dioxol-5-yl)-N-(2,5-dimethoxyphenyl)acetamide] | > 300 | > 300 | 207 ± 2.59 | > 300 | > 300 | 209 ± 2.2 | > 300 | IC50 (α-amylase [2]): 16.4 ± 1.58 µM
O=C(Nc1cccc(C(F)(F)F)c1)c1ccc2c(c1)OCO2 [IIc, N-(3-(trifluoromethyl)phenyl)benzo[d][1,3]dioxole-5-carboxamide] | > 300 | > 300 | > 150 | > 300 | > 300 | > 300 | > 300 | IC50 (Hek293t normal cell line): 156 ± 2.98 µM; blood glucose level after treatment [4]: 173.8 mg/dL
COc1ccccc1Oc1ccc(NC(=O)c2ccc3c(c2)OCO3)cc1 [IId, N-(4-(2-methoxyphenoxy)phenyl)benzo[d][1,3]dioxole-5-carboxamide] | 55.3 ± 2.72 | 55.8 ± 2.51 | > 300 | > 300 | 26.6 ± 2.41 | 31.4 ± 2.71 | 65.2 ± 2.53 | IC50 (cancer cell lines; Homo sapiens, Caco-2, four cancer cell lines / all cell lines except Caco-2): 26 to 65 µM; IC50 (cancer cell lines; four cancer cell lines / all cell lines except Caco-2): 26.6 to 65.2 µM; IC50 (α-amylase [2]): 5.76 ± 1.92 µM
